Experimental data as given in patent publication US11976083B2, “Inhibitors of peptidylarginine deiminases” (Gilead Sciences, Inc., priority 2020, dated 2024).

These compounds were tested against T1, human PAD4 (Homo sapiens, UniProt Q9UM07) (assay: In vitro PAD4 BAEE biochemical assay). Conditions: BAEE substrate 3 mM, 5 nM PAD4, 2 mM calcium chloride; geometric mean of multiple experiments.
T1 construct: human PAD4 (NM_012387), A2-P663, was PCR amplified; His-SUMO (N, cleaved yes); made in house; host or cells: E. coli BL21(DE3)
Outline: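 Ammonia produced by BAEE deimination (3 mM substrate, 2 h, 25 °C) was read as fluorescent isoindole after o-phthalaldehyde/DTT derivatization, ex 405 nm/em 535 nm. Human PAD4 at 5 nM final, 2 mM calcium, pH 7.6 MOPS; compound preincubated 30 min. IC50s, normalized to BB-Cl-Amidine and DMSO controls, were geometric-mean averaged.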

T1 sequence (Q9UM07 2-663): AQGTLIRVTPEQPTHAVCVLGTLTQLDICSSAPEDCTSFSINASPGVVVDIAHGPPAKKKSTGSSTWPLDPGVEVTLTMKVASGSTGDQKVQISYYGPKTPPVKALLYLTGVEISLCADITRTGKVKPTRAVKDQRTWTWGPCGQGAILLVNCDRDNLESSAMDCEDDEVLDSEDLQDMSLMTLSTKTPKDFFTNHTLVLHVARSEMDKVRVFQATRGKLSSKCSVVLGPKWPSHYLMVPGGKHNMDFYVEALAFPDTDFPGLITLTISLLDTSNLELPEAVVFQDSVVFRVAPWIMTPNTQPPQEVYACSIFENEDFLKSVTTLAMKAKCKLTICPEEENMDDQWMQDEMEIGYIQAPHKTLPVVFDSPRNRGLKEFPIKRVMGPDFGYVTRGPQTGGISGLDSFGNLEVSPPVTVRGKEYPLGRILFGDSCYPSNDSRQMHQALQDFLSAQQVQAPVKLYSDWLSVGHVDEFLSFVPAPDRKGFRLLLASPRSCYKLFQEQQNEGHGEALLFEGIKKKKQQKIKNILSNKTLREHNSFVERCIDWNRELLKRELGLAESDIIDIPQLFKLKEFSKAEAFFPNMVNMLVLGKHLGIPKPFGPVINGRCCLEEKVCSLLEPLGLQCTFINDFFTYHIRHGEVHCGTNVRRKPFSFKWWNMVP

First: COc1cc(C(=O)N2C[C@H](N)[C@@H]3CC[C@H]2C3)cc2nc(-c3cc4ccc5nc4n3CCCCCC[C@@H](c3ccccn3)C(=O)N[C@@H]5C)n(C)c12 [Example 891, (8~{S),11~{R})-17-[5-[(1~{S},4~{R},5~{R})-4-amino-2-azabicyclo[3.2.1]octane-2-carbonyl]-7-methoxy-1-methyl-benzimidazol-2-yl]-11-methyl-8-(2-pyridyl)-1,10,19-triazatricyclo[10.5.2.0^ {15,18}]nonadeca-12(19), 13,15(18),16-tetraen-9-one]
Second: COc1cc(C(=O)N2C[C@H](N)[C@@H]3CC[C@H]2C3)cc2nc(-c3cc4ccc5nc4n3CCCCCC[C@H](c3ccccn3)C(=O)N[C@@H]5C)n(C)c12 [Example 892, (8~{R},11~{R})-17-[5-[(1~{S},4~{R},5~{R})-4-amino-2-azabicyclo[3.2.1]octane-2-carbonyl]-7-methoxy-1-methyl-benzimidazol-2-yl]-11-methyl-8-(2-pyridyl)-1,10,19-triazatricyclo[10.5.2.0^{15,18}] nonadeca-12(19), 13,15(18),16-tetraen-9-one]
The IC50 of the first is 2.1-fold lower: 13 nM for the first, 27 nM for the second. The first is the more potent here.

COc1cc(C(=O)N2C[C@H](N)[C@@H]3CC[C@H]2C3)cc2nc(-c3cc4ccc5nc4n3CCC[C@H]3C[C@@H]3c3ccccc3C(=O)N[C@@H]5C)n(C)c12 [Example 893] and COc1cc(C(=O)N2C[C@H](N)[C@@H]3CC[C@H]2C3)cc2nc(-c3cc4ccc5nc4n3CCCCCc3ccc(F)cc3C(=O)N[C@@H]5C)n(C)c12 [Example 899, (2~{R})-17-[5-[(1~{S},4~{R}, 5~{R})-4-amino-2-azabicyclo [3.2.1]octane-2-carbonyl]-7-methoxy-1-methyl-benzimidazol-2-yl]-7-fluoro-2-methyl-3,16,22-triazatetracyclo [14.5.2.0^{5,10}.0^{19,23}] tricosa-1(22),5(10),6,8,17, 19(23),20-heptaen-4-one] are within 1.5-fold of each other in IC50: 28 nM for the first, 30 nM for the second.

COc1cc(C(=O)N2C[C@H](N)[C@@H]3CC[C@H]2C3)cc2nc(-c3cc4ccc5nc4n3CCCCCc3c(F)cc(F)cc3C(=O)N[C@@H]5C)n(C)c12 [Example 894, (2~{R})-17-[5-[(1~{S},4~ {R},5~{R})-4-amino-2-azabicyclo[3.2.1]octane-2-carbonyl]-7-methoxy-1-methyl-benzimidazol-2-yl]-7,9-difluoro-2-methyl-3,16,22-triazatetracyclo [14.5.2.0^{5,10).0^{19,23}] tricosa-1(22),5(10),6,8,17, 19(23),20-heptaen-4-one] and COc1cc(C(=O)N2C[C@H](N)[C@@H]3CC[C@H]2C3)cc2nc(-c3cc4ccc5nc4n3CCCCCc3c(ccc(F)c3F)C(=O)N[C@@H]5C)n(C)c12 [Example 906, (2~{R})-17-[5-[(1~{S},4~{R}, 5~{R})-4-amino-2-azabicyclo [3.2.1]octane-2-carbonyl]-7-methoxy-1-methyl-benzimidazol-2-yl]-8,9-difluoro-2-methyl-3,16,22-triazatetracyclo [14.5.2.0^{5,10).0^{19,23}] tricosa-1(22),5(10),6,8,17, 19(23),20-heptaen-4-one] are within 1.5-fold of each other in IC50: 72 nM for the first, 55 nM for the second.

First: C[C@H]1NC(=O)c2ccc(Cl)nc2CCCCCn2c(-c3nc4cc(C(=O)N5C[C@H](N)[C@@H]6CC[C@H]5C6)cc(F)c4n3C3CC3)cc3cc(F)c1nc32 [Example 895, (2~{R})-17-[5-[(1~{S},4~{R}, 5~{R})-4-amino-2-azabicyclo [3.2.1]octane-2-carbonyl]-1-cyclopropyl-7-fluoro-benzimidazol-2-yl]-8-chloro-21-fluoro-2-methyl-3,9,16,22-tetrazatetracyclo[14.5.2.0^ {5,10).0^{19,23}]tricosa-1(22),5(10),6,8,17,19(23),20-heptaen-4-one]
Second: COc1cc(C(=O)N2C[C@H](N)[C@@H]3CC[C@H]2C3)cc2nc(-c3cc4ccc5nc4n3CCCCCc3c(ccc(Cl)c3F)C(=O)N[C@@H]5C)n(C)c12 [Example 898, (2~{R})-17-[5-[(1~{S},4~{R},5~ {R})-4-amino-2-azabicyclo [3.2.1]octane-2-carbonyl]-7-methoxy-1-methyl-benzimidazol-2-yl]-8-chloro-9-fluoro-2-methyl-3,16,22-triazatetracyclo[14.5.2.0^ {5,10}.0^{19,23}]tricosa-1(22),5(10),6,8,17,19(23),20-heptaen-4-one]
The IC50 of the first is 4.6-fold lower: 34 nM for the first, 156 nM for the second.

First: COc1cc(C(=O)N2C[C@H](N)[C@@H]3CC[C@H]2C3)cc2nc(-c3cc4ccc5nc4n3CCCCCc3cc(C(F)F)ccc3C(=O)N[C@@H]5C)n(C)c12 [Example 896, (2~{R})-17-[5-[(1~{S),4~{R},5~ {R})-4-amino-2-azabicyclo [3.2.1]octane-2-carbonyl]-7-methoxy-1-methyl-benzimidazol-2-yl]-8-(difluoromethyl)-2-methyl-3,16,22-triazatetracyclo [14.5.2.0^{5,10}.0^{19,23}] tricosa-1(22),5(10),6,8,17,19(23), 20-heptaen-4-one]
Second: COc1cc(C(=O)N2C[C@H](N)[C@@H]3CC[C@H]2C3)cc2nc(-c3cc4ccc5nc4n3CCCCCc3cc(F)ccc3C(=O)N[C@@H]5C)n(C)c12 [Example 900, (2~{R})-17-[5-[(1~{S),4~{R}, 5~{R})-4-amino-2-azabicyclo [3.2.1]octane-2-carbonyl]-7-methoxy-1-methyl-benzimidazol-2-yl]-8-fluoro-2-methyl-3,16,22-triazatetracyclo[14.5.2.0^ {5,10}.0^{19,23}]tricosa-1(22),5(10),6,8,17,19(23),20-heptaen-4-one]
The IC50 of the first is 2-fold higher: 56 nM for the first, 28 nM for the second.

COc1cc(C(=O)N2C[C@H](N)[C@@H]3CC[C@H]2C3)cc2nc(-c3cc4ccc5nc4n3CCCCCc3ccc(F)c(F)c3C(=O)N[C@@H]5C)n(C)c12 [Example 897, (2~{R})-17-[5-[(1~{S),4~{R}, 5~{R})-4-amino-2-azabicyclo [3.2.1]octane-2-carbonyl]-7-methoxy-1-methyl-benzimidazol-2-yl]-6,7-difluoro-2-methyl-3,16,22-triazatetracyclo [14.5.2.0^{5,10}.0^{19,23}] tricosa-1(22),5(10),6,8,17, 19(23),20-heptaen-4-one] and COc1cc(C(=O)N2C[C@H](N)[C@@H]3CC[C@H]2C3)cc2nc(-c3cc4ccc5nc4n3CCCCCc3c(F)ccc(F)c3C(=O)N[C@@H]5C)n(C)c12 [Example 903, (2~{R})-17-[5-[(1~{S},4~{R}, 5~{R})-4-amino-2-azabicyclo [3.2.1]octane-2-carbonyl]-7-methoxy-1-methyl-benzimidazol-2-yl]-6,9-difluoro-2-methyl-3,16,22-triazatetracyclo [14.5.2.0^{5,10}.0^{19,23}] tricosa-1(22),5(10),6,8,17, 19(23),20-heptaen-4-one] are within 1.5-fold of each other in IC50: 40 nM for the first, 55 nM for the second.

COc1cc(C(=O)N2C[C@H](N)[C@@H]3CC[C@H]2C3)cc2nc(-c3cc4ccc5nc4n3CCCCCc3cc(Cl)ccc3C(=O)N[C@@H]5C)n(C)c12 [Example 901, (2~{R})-17-[5-[(1~{S),4~{R}, 5~{R})-4-amino-2-azabicyclo [3.2.1]octane-2-carbonyl]-7-methoxy-1-methyl-benzimidazol-2-yl]-8-chloro-2-methyl-3,16,22-triazatetracyclo [14.5.2.0^{5,10}.0^{19,23}] tricosa-1(22),5(10),6,8,17, 19(23),20-heptaen-4-one] and COc1cc(C(=O)N2C[C@H](N)[C@@H]3CC[C@H]2C3)cc2nc(-c3cc4ccc5nc4n3CCCCCc3cccc(F)c3C(=O)N[C@@H]5C)n(C)c12 [Example 902, (2~{R})-17-[5-[(1~{S),4~{R}, 5~{R})-4-amino-2-azabicyclo [3.2.1]octane-2-carbonyl]-7-methoxy-1-methyl-benzimidazol-2-yl]-6-fluoro-2-methyl-3,16,22-triazatetracyclo [14.5.2.0^{5,10}.0^{19,23}] tricosa-1(22),5(10),6,8,17, 19(23),20-heptaen-4-one] are within 1.5-fold of each other in IC50: 59 nM for the first, 48 nM for the second.

COc1cc(C(=O)N2C[C@H](N)[C@@H]3CC[C@H]2C3)cc2nc(-c3cc4ccc5nc4n3CCCCCOC3(CC3)C(=O)N[C@@H]5C)n(C3CC3)c12 [Example 904, (11~{R})-17-[5-[(1~{S),4~{R}, 5~{R})-4-amino-2-azabicyclo [3.2.1]octane-2-carbonyl]-1-cyclopropyl-7-methoxy-benzimidazol-2-yl]-11-methyl-spiro[7-oxa-1,10,19-triazatricyclo[10.5.2.0^{15,18}]nonadeca-12(19), 13,15(18),16-tetraene-8,1′-cyclopropane]-9-one] and COc1cc(C(=O)N2C[C@H](N)[C@@H]3CC[C@H]2C3)cc2nc(-c3cc4ccc5nc4n3CCCCCOC(C)(C)C(=O)N[C@@H]5C)n(C3CC3)c12 [Example 905, (11~{R})-17-[5-[(1~{S},4~{R}, 5~{R})-4-amino-2-azabicyclo [3.2.1]octane-2-carbonyl]-1-cyclopropyl-7-methoxy-benzimidazol-2-yl]-8,8,11-trimethyl-7-oxa-1,10,19-triazatricyclo[10.5.2.0^{15,18}] nonadeca-12(19), 13,15(18),16-tetraen-9-one] are within 1.5-fold of each other in IC50: 101 nM for the first, 72 nM for the second.

First: COc1cc(C(=O)N2C[C@H](N)[C@@H]3CC[C@H]2C3)cc2nc(-c3cc4ccc5nc4n3CCCCCCCN(C(C)=O)[C@@H]5C)n(C)c12 [Example 907]
Second: COc1cc(C(=O)N2C[C@H](N)[C@@H]3CC[C@H]2C3)cc2nc(-c3cc4ccc5nc4n3CCCCCCCCN(C(C)=O)[C@@H]5C)n(C)c12 [Example 908]
The IC50 of the first is 1.8-fold lower: 82 nM for the first, 151 nM for the second. The first is the more potent here.

In the case of COc1cc(C(=O)N2C[C@H](N)[C@@H]3CC[C@H]2C3)cc2nc(-c3cc4ccc5nc4n3CCCCCOC(C)(C)C(=O)N[C@@H]5C)n(C)c12 [Example 909, (11~{R})-17-[5-[(1~{S},4~{R), 5~{R})-4-amino-2-azabicyclo [3.2.1]octane-2-carbonyl]-7-methoxy-1-methyl-benzimidazol-2-yl]-8,8,11-trimethyl-7-oxa-1,10,19-triazatricyclo[10.5.2.0^{15,18}] nonadeca-12(19), 13,15(18),16-tetraen-9-one], the IC50 is reported as 52 nM.
